For the data set the following is noted: 101.33 kPa, Liquid, Pycnometric method.

± gives the expanded uncertainty stated by the source.

Broadly, the mass density is the mass of a sample divided by its volume. Take `CCn1cc[n+](C)c1.F[B-](F)(F)F` [1-ethyl-3-methylimidazolium tetrafluoroborate]: the mass density was determined as 1290 ± 7 kg/m3 (285 K); 1286 ± 7 kg/m3 (290 K); 1282 ± 7 kg/m3 (295 K); 1279 ± 7 kg/m3 (300 K); 1275 ± 7 kg/m3 (305 K).

These data come from the NIST ThermoML archive (doi:10.1021/je700037z).
